Data: ChEMBL document CHEMBL5131397, “Discovery and Optimization of Pyrazole Amides as Inhibitors of ELOVL1” (J Med Chem, 2021)
pIC50: −log10 of the molar value. Active and inactive are the calls of the source. The calls are words filed in the database; no cut-off is given here.

Key:
[1] = Toxicity in Sprague-Dawley rat assessed as ocular hyperplasia at 5 mg/kg/day, po administered for 8 weeks by microscopic observation analysis; type: organism-based; settings: in vivo, 1344 h
[2] = Toxicity in Cynomolgus monkey assessed as dry and red scaly areas on eyelids at 5 to 50 mg/kg/day, po administered for 14 days by macroscopic observation analysis; type: organism-based, Macaca fascicularis; settings: in vivo, 336 h, dose 5-50 mg/kg/day, time 14 day
[3] = AUC (infinity) in Sprague-Dawley rat at 3 mg/kg, po upto 24 hrs by LC/MS/MS analysis; type: ADME, organism-based; parameters: dose 3 mg/kg, time < 24 hrs, route po; settings: in vivo
[4] = Toxicity in Sprague-Dawley rat assessed as decrease in body weight at 5 to 50 mg/kg/day, po administered for 8 weeks; type: organism-based; settings: in vivo, 1344 h, dose 5-50 mg/kg/day
[5] = Reduction in C26:0/C16:0 total VLFCA levels in ABCD1 knock out mouse CNS at 10 mg/kg, po qd measured after 2 months of dosing by LC-MS/MS analysis; type: functional; parameters: scale not given: the % may be the effect or the level left; settings: 1460 h
[6] = Toxicity in Sprague-Dawley rat assessed as adverse effects at 5 to 50 mg/kg/day, po administered for 8 weeks and measured after cessation dosing by long-term safety study; type: organism-based; settings: in vivo, 1344 h, dose 5-50 mg/kg/day
[7] = Plasma protein binding in dog at 5 uM; type: ADME, cell-free, Canis lupus familiaris; settings: read-out: PPB (converted)
[8] = Half life in Sprague-Dawley rat at 1 mg/kg, iv upto 48 hrs by LC/MS/MS analysis; type: ADME, organism-based; settings: in vivo
[9] = target: T1, Very long chain fatty acid elongase 7 (Homo sapiens) (UniProt A1L3X0); experiment: Inhibition of ELOVL-7 in human HEK2936E cells assessed as reduction in C22:0 lysophosphatidyl choline synthesis at 100 nM in presence of 13C-labeled acetate measured after 48 hrs; type: cell-based
T1 sequence (whole entry): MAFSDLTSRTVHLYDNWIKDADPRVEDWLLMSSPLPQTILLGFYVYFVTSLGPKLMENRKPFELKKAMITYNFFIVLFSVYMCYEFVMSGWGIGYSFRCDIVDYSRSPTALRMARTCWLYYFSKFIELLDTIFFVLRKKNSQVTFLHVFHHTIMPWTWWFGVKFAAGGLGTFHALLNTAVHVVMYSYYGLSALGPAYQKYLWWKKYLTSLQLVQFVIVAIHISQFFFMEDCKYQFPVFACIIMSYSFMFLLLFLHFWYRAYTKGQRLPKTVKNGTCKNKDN

Mus musculus [10] = experiment: Reduction in C22:0/C16:0 LPC level in ABCD1 knock out mouse CNS at 1 to 10 mg/kg, po qd measured after 3 months of dosing by LC-MS/MS analysis; type: functional, organism-based; settings: dose 1-10 mg/kg
[11] = Half life in Beagle dog at 0.5 mg/kg, iv upto 48 hrs by LC/MS/MS analysis; type: ADME, organism-based, Canis lupus familiaris; settings: in vivo
[12] = Increase in C20:0/C16:0 LPC level in ABCD1 knock out mouse CNS at 1 mg/kg, po qd measured after 3 months of dosing by LC-MS/MS analysis; type: functional; settings: 2190 h
[13] = Toxicity in Cynomolgus monkey assessed as skin lesions at 1 mg/kg/day, po observed from 8 to 13 weeks; type: organism-based, Macaca fascicularis; settings: in vivo, time 8-13 weeks
[14] = Cmax in Beagle dog at 3 mg/kg, po upto 24 hrs by LC/MS/MS analysis; type: ADME, organism-based, Canis lupus familiaris; parameters: dose 3 mg/kg, time < 24 hrs, route po; settings: in vivo
[15] = Toxicity in Cynomolgus monkey assessed as dry and red scaly areas on face at 5 to 50 mg/kg/day, po administered for 14 days by macroscopic observation analysis; type: organism-based, Macaca fascicularis; settings: in vivo, 336 h, dose 5-50 mg/kg/day, time 14 day
[16] = Reduction in C26:0 LPC level in Cynomolgus monkey plasma at 15 mg/kg, po qd for 13 weeks by LC-MS/MS analysis; type: functional, Macaca fascicularis; parameters: scale not given: the % may be the effect or the level left
[17] = Toxicity in Cynomolgus monkey assessed as skin inflammatory infiltrates at 5 to 50 mg/kg/day, po administered for 14 days by microscopic observation analysis; type: organism-based, Macaca fascicularis; settings: in vivo, 336 h, dose 5-50 mg/kg/day, time 14 day
[18] = target: T2, Very long chain fatty acid elongase 1 (Homo sapiens, UniProt Q9BW60); experiment: Inhibition of ELOVL1 in human microglia assessed as reduction of C26:0 VLCFA synthesis incubated for 48 hrs by cellular assay; type: cell-based
T2 sequence (Q9BW60 whole entry): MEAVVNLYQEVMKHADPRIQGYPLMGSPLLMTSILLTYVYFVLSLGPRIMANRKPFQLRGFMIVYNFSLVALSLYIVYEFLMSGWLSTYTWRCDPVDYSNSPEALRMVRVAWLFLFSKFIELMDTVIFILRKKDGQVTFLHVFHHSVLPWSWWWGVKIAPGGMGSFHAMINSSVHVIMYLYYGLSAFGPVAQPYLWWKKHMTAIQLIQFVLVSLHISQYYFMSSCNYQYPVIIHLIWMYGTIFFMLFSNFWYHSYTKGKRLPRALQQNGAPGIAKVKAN

[19] = Toxicity in Cynomolgus monkey assessed as dry and red scaly areas on thorax at 5 to 50 mg/kg/day, po administered for 14 days by macroscopic observation analysis; type: organism-based, Macaca fascicularis; settings: in vivo, 336 h, dose 5-50 mg/kg/day, time 14 day
[20] = Toxicity in juvenile Sprague-Dawley rat assessed as clonic convulsions 5 to 75 mg/kg/day, po treatment started from postnatal day 75 to 114 days measured after cessation of dosing; type: organism-based; settings: in vivo, dose lower 5 mg/kg/day, time lower 75 day, dose upper 75 mg/kg/day, time upper 114 day
[21] = Apparent permeability across apical to basolateral side in wild-type dog MDCK cells by LC-MS analysis; type: ADME, cell-based, Canis lupus familiaris
[22] = Oral bioavailability in Sprague-Dawley rat at 3 mg/kg upto 24 hrs by LC/MS/MS analysis; type: ADME, organism-based; settings: in vivo
[23] = Reduction in C26:0/C16:0 LPC level in ABCD1 knock out mouse CNS at 8 mg/kg, po qd measured after 6 months of dosing by LC-MS/MS analysis; type: functional; parameters: scale not given: the % may be the effect or the level left; settings: 4380 h
[24] = Clearance in Beagle dog at 0.5 mg/kg, iv upto 48 hrs by LC/MS/MS analysis; type: ADME, organism-based, Canis lupus familiaris; settings: in vivo
Mus musculus [25] = experiment: Reduction of C26:0 LPC level in ABCD1 KO mouse blood at 5 to 20 mg/kg, po qd for 8 months continuous dosing by LC-MS/MS analysis; type: functional, organism-based; settings: dose 5-20 mg/kg
[26] = Cmax in Cynomolgus monkey at 3 mg/kg, po upto 24 hrs by LC/MS/MS analysis; type: ADME, organism-based, Macaca fascicularis; parameters: time < 24 hrs, dose 3 mg/kg, route po; settings: in vivo
[27] = Reduction in C26:0/C16:0 LPC level in ABCD1 knock out mouse CNS at 16 mg/kg, po qd measured after 6 months of dosing by LC-MS/SMS analysis; type: functional; parameters: scale not given: the % may be the effect or the level left; settings: 4380 h
[28] = Toxicity in Cynomolgus monkey assessed as acanthosis at 5 to 50 mg/kg/day, po administered for 14 days by microscopic observation analysis; type: organism-based, Macaca fascicularis; settings: in vivo, 336 h, dose 5-50 mg/kg/day, time 14 day
[29] = Volume of distribution at steady state in Cynomolgus monkey at 1 mg/kg, iv upto 48 hrs by LC/MS/MS analysis; type: ADME, organism-based, Macaca fascicularis; settings: in vivo, read-out: Vdss

Question: With `O=C(Nc1ccn(-c2ccnc(F)c2)n1)C1(c2ccccc2F)CC1` as the compound, how does the Activity [1] read?
Answer: Toxic

Question: What about the Activity [2] of the same compound?
Answer: Toxic

Question: And the AUC [3]?
Answer: 442 ng·h/mL

Question: What about the Activity [4] of the same compound?
Answer: Toxic

Question: What about the Activity [5] of the same compound?
Answer: 50%

Question: And the Activity [6]?
Answer: Non-Toxic

Question: What about the fraction unbound at 5 µM [7] of the same compound?
Answer: 0.061

Question: And the half-life [8]?
Answer: 210 min

Question: What about the inhibition [9] of the same compound?
Answer: Active

Question: And the Activity (Mus musculus [10])?
Answer: Active

Question: What about the half-life [11] of the same compound?
Answer: 210 min

Question: And the Activity [12]?
Answer: 18%

Question: And the Activity [13]?
Answer: Non-Toxic

Question: And the Cmax [14]?
Answer: 261 ng/mL

Question: What about the Activity [15] of the same compound?
Answer: Toxic

Question: What about the Activity [16] of the same compound?
Answer: 82%

Question: What about the Activity [17] of the same compound?
Answer: Toxic

Question: What about the pIC50 [18] of the same compound?
Answer: 7.96

Question: And the Activity [19]?
Answer: Toxic

Question: What about the Activity [20] of the same compound?
Answer: Toxic

Question: What about the Papp A→B [21] of the same compound?
Answer: 10.1 ×10⁻⁶ cm/s

Question: What about the F [22] of the same compound?
Answer: 66%

Question: And the Activity [23]?
Answer: 54%

Question: And the clearance [24]?
Answer: 30.4 mL/min/kg

Question: What about the Activity (Mus musculus [25]) of the same compound?
Answer: Active

Question: And the Cmax [26]?
Answer: 404 ng/mL

Question: What about the Activity [27] of the same compound?
Answer: 55%

Question: What about the Activity [28] of the same compound?
Answer: Toxic

Question: And the Vd [29]?
Answer: 3 L/kg
